Patent publication US11021445B2, “Carboxylic acid derivative as AT2R receptor antagonist” (SHANDONG DANHONG PHARMACEUTICAL CO., LTD., priority 2017, dated 2021)

Target: T1, hAT2 (Homo sapiens, UniProt P50052)
T1 construct: expressed in transfected cells; host or cells: HEK-293
T1 sequence (P50052 1-363): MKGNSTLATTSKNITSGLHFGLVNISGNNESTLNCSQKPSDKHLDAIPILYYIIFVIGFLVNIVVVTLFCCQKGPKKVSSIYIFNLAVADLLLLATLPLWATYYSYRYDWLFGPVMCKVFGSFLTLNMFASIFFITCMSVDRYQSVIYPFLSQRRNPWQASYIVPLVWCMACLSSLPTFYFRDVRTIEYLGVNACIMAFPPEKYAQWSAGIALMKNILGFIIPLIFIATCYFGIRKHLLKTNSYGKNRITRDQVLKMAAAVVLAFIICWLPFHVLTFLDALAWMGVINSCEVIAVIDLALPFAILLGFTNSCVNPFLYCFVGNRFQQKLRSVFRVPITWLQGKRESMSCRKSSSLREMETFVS
Test: hAT2 receptor binding assay (SPA, [125I]-Sar1-Ile8-Angiotensin II)
Conditions: membrane of HEK-293 cells overexpressing hAT2; 0.1 nM 125I ligand
Protocol: hAT2 Receptor Binding Assay
Protease inhibitor mixture, free of ethylenediaminetetraacetic acid-1 tablets (Roche #11873580001) (50 mL plus one piece)
Experimental Methods and Steps
The reference ligand PD123319 and the test compound were prepared into a 750 μM mother liquor by DMSO; each compound was prepared into a solution of 8 concentration gradients (up to a concentration of 750 μM, 3-fold dilution) and 10 μl of the solution was added to a master of a 384-well plate per well.
The SPA beads were prepared to a mother liquor of 25 mg/ml by the buffer;
The isotope [^125I]-Sar1-Ile8-Angiotensin II was prepared into a mother liquor of 50 μCi/ml by adding pure water.
The cell membrane overexpressing hAT2 in HEK-293 cells was prepared to 2.5 mg/ml by the buffer.
200 nl of compound was aspirated from the mother plate with ECHO to each well of the 384-well test plate. ZPE was added to an equal volume of DMSO. (The concentration of the test compound in the reaction was diluted by 250 times).
A 50 ml membrane solution containing 10 μg/μl of magnetic beads and 0.05 μg/μl of AT2 was prepared, placed on a shaker and uniformly mixed. (100 rpm, 30 min). The test plate finally contained an hAT2 membrane with 1.25 μg/well and magnetic beads with 250 μg/well.
A 3.2 ml membrane liquid mixture was added to the compound test plate by using a Multidrop Combi pipette, and 25 μl was added to each well.
A 0.2 nM solution was prepared with 50 μCi/ml of isotope [^125I]-Sar1-Ile8-Angiotensin II mother liquor by the buffer, and 0.2 nM of ^125I was added to the compound test plate with a Multidrop Combi pipette. A volume of 25 μl was added to each well. The final concentration of ^125I isotope is 0.1 nM.
The prepared test plate was placed on a shaker overnight at room temperature at 200 rpm.
The test plate was centrifuged with a centrifuge at 1200 rpm for 1 min.
The centrifuged test plate was read with Microbeta.

IC50	Structure (SMILES)
78.3 nM	COc1ccc2c(c1OCc1ccccc1)C[C@@H](C(=O)O)N(C(=O)[C@H](Oc1ccc(F)cc1)c1ccccc1)C2 [Compound 32]
72.1 nM	COc1ccc2c(c1OCc1ccccc1)C[C@@H](C(=O)O)N(C(=O)[C@@H](Oc1cccs1)c1ccccc1)C2 [Compound 25]
59.6 nM	COc1ccc2c(c1OCc1ccccc1)C[C@@H](C(=O)O)N(C(=O)[C@@H](Oc1ccc(F)cc1)c1ccccc1)C2 [Compound 31]
9.1 nM	COc1ccc2c(c1OCc1cccs1)C[C@@H](C(=O)O)N(C(=O)[C@@H](OC1CCCC1)c1ccccc1)C2 [Compound 117]
72.7 nM	COc1ccc2c(c1OCc1ccccc1)C[C@@H](C(=O)O)N(C(=O)[C@H](OC1CCC3CC31)c1ccccc1)C2 (single isomer, unassigned) [Compound 61]
65.6 nM	Cc1ccc2c(c1OCc1ccccc1)C[C@@H](C(=O)O)N(C(=O)[C@H](OC1(C)CCCC1)c1ccccc1)C2 [Compound 70]
1.7 nM	Cc1ccc2c(c1OCc1ccccc1)C[C@@H](C(=O)O)N(C(=O)[C@@H](OC1(C)CCCC1)c1ccccc1)C2 [Compound 69]
143 nM	COc1ccc2c(c1OCc1ccccc1)C[C@@H](C(=O)O)N(C(=O)[C@@H](Oc1ccccc1F)c1ccccc1)C2 [Compound 17]
216 nM	COc1ccc2c(c1OCc1ccccc1)C[C@@H](C(=O)O)N(C(=O)[C@H](NC1CCCC1)c1ccccc1)C2 [Compound 41]
4.4 nM	COc1ccc2c(c1OCc1ccccc1)C[C@@H](C(=O)O)N(C(=O)[C@@H](OC1CC3CC3C1)c1ccccc1)C2 (stereo partly shown) [Compound 55]
1240 nM	COc1ccc2c(c1OCc1ccccc1)C[C@@H](C(=O)O)N(C(=O)[C@@H](Oc1ccc3ccccc3c1)c1ccccc1)C2 [Compound 35]
691 nM	COc1ccc2c(c1OCc1ccccc1)C[C@@H](C(=O)O)N(C(=O)[C@H](OC1CCCC1)c1ccccc1)C2 [Compound 38]
> 3000 nM	COc1ccc2c(c1OCc1ccccc1)C[C@@H](C(=O)O)N(C(=O)[C@H](OC1CCCC1)c1ccc(F)cc1)C2 [Compound 54]
323 nM	CC1(O[C@@H](C(=O)N2Cc3cccc(OCc4ccccc4)c3C[C@H]2C(=O)O)c2ccccc2)CCCC1 [Compound 80]
30.4 nM	O=C(O)[C@@H]1Cc2c(ccc(O)c2OCc2ccccc2)CN1C(=O)[C@@H](OC1CCCC1)c1ccccc1 [Compound 118]
487 nM	COc1ccc2c(c1OCc1ccccc1)C[C@@H](C(=O)O)N(C(=O)[C@H](c1ccccc1)N(C)C1CCCC1)C2 [Compound 45]
648 nM	COc1ccc2c(c1OCc1ccccc1)C[C@@H](C(=O)O)N(C(=O)[C@@H](Oc1ccc(Cl)cc1)c1ccccc1)C2 [Compound 33]
20.8 nM	O=C(O)[C@@H]1Cc2c(cccc2OCc2ccccc2)CN1C(=O)[C@H](O[C@H]1CC[C@@H](O)CC1)c1ccccc1 [Compound 82]
245 nM	COc1ccc2c(c1OCc1ccccc1)C[C@@H](C(=O)O)N(C(=O)[C@@H](Oc1ccc(F)cc1F)c1ccccc1)C2 [Compound 27]

IC50	Structure (SMILES)
> 3000 nM	COc1ccc2c(c1OCc1ccccc1)C[C@@](C)(C(=O)O)N(C(=O)[C@@H](OC1CCCC1)c1ccccc1)C2 [Compound 113]
552 nM	N#Cc1ccc2c(c1OCc1ccccc1)C[C@H](C(=O)O)N(C(=O)[C@@H](OC1CCCC1)c1ccccc1)C2 [Compound 110]
67 nM	Cc1ccc2c(c1OCc1ccccc1)C[C@@H](C(=O)O)N(C(=O)[C@H](OC1CC(F)(F)C1)c1ccccc1)C2 [Compound 68]
5.3 nM	Cc1ccc2c(c1OCc1ccccc1)C[C@@H](C(=O)O)N(C(=O)[C@H](O[C@H]1CC[C@@H](O)CC1)c1ccccc1)C2 [Compound 72]
96.4 nM	COc1ccc2c(c1OCc1ccccc1)C[C@@H](C(=O)O)N(C(=O)[C@@H](Oc1c(F)cc(F)cc1F)c1ccccc1)C2 [Compound 15]
375 nM	COc1ccc2c(c1OCc1ccccc1)C[C@@H](C(=O)O)N(C(=O)[C@H](O[C@H]1CC[C@@H](O)CC1)c1ccccc1)C2 [Compound 64]
1.6 nM	Cc1ccc2c(c1OCc1ccccc1)C[C@@H](C(=O)O)N(C(=O)[C@@H](OC1CC(F)(F)C1)c1ccccc1)C2 [Compound 67]
227 nM	COc1ccc2c(c1OCc1ccccc1)C[C@@H](C(=O)O)N(C(=O)[C@H](Oc1ccc(Cl)cc1)c1ccccc1)C2 [Compound 34]
129 nM	O=C(O)[C@@H]1Cc2c(ccc(Cl)c2OCc2ccccc2)CN1C(=O)[C@H](OC1CC(F)(F)C1)c1ccccc1 [Compound 74]
850 nM	COc1ccc2c(c1OCc1ccccc1)CC(C(=O)O)N(C(=O)C(OC1CCOCC1)c1ccccc1)C2 (single isomer, unassigned) [Compound 2]
176 nM	COc1ccc2c(c1OCc1ccccc1)C[C@@H](C(=O)O)N(C(=O)[C@H](Oc1ccccc1)c1ccccc1)C2 [Compound 20]
17.7 nM	CCCCO[C@H](C(=O)N1Cc2ccc(OC)c(OCc3ccccc3)c2C[C@H]1C(=O)O)c1ccccc1 [Compound 5]
60.7 nM	COc1ccc2c(c1OCc1ccccc1)C[C@@H](C(=O)O)N(C(=O)[C@H](O[C@@H]1CCOC1)c1ccccc1)C2 (single isomer, unassigned) [Compound 10]
2.5 nM	COc1ccc2c(c1OCc1ccccc1)C[C@@H](C(=O)O)N(C(=O)[C@@H](OC1CCC3CC31)c1ccccc1)C2 (single isomer, unassigned) [Compound 60]
155 nM	COc1ccc2c(c1OCc1ccccc1)C[C@@H](C(=O)O)N(C(=O)[C@H](OC1(C)CCCC1)c1ccccc1)C2 [Compound 58]
197 nM	COCCO[C@H](C(=O)N1Cc2ccc(OC)c(OCc3ccccc3)c2C[C@H]1C(=O)O)c1ccccc1 [Compound 3]
115 nM	COc1ccc2c(c1OCc1ccccc1)C[C@@](C)(C(=O)O)N(C(=O)[C@H](OC1CCCC1)c1ccccc1)C2 [Compound 115]
29.8 nM	COc1ccc2c(c1OCc1ccccc1)C[C@@H](C(=O)O)N(C(=O)[C@H](Oc1ccc(F)cc1F)c1ccccc1)C2 [Compound 28]
